Tests used:
Trypanosoma brucei [1] = assay: Inhibition of Trypanosoma brucei rhodesain using Cbz-Phe-Arg-AMC as substrate at 20 uM by fluorescence-based assay
[2] = Inhibition of Trypanosoma brucei rhodesain using Cbz-Phe-Arg-AMC as substrate by fluorescence-based assay
[3] = test system: Trypanosoma brucei brucei; assay: Antitrypanosomal activity against Trypanosoma brucei brucei BS449 measured after 72 hrs using ATPlite-1 reagent by cell based luciferase reporter gene assay; assay type: functional
[4] = Stability of the compound in HMI-9 medium measured after 48 hrs; assay type: physicochemical
[5] = test system: Trypanosoma brucei brucei; assay: Antitrypanosomal activity against Trypanosoma brucei brucei BS449 measured after 24 hrs using ATPlite-1 reagent by cell based luciferase reporter gene assay; assay type: functional; settings: BS449, 24 h
[6] = test system: Trypanosoma brucei brucei; assay: Antitrypanosomal activity against Trypanosoma brucei brucei Trypanosoma brucei brucei BS449 measured after 48 hrs using ATPlite-1 reagent by cell based luciferase reporter gene assay; assay type: functional; settings: BS449, 48 h
[7] = Selectivity index, ratio of Ki for human cathepsin L to Ki for competitive inhibition of Trypanosoma brucei rhodesain
Trypanosoma brucei [8] = assay: Inhibition of Trypanosoma brucei rhodesain using Cbz-Phe-Arg-AMC as substrate at 0.05 to 20 uM by fluorescence-based assay; settings: TDE = time-dependent effect
[9] = Competitive inhibition of Trypanosoma brucei rhodesain in presence of varying levels of Cbz-Phe-Arg-AMC substrate by Cheng-Prusoff equation analysis
[10] = Solubility of the compound in HMI-9 medium; assay type: physicochemical
[11] = Inhibition of Trypanosoma brucei rhodesain using 10 uM of Cbz-Phe-Arg-AMC as substrate by Cheng-Prusoff equation analysis
[12] = Solubility of the compound in PBS; assay type: physicochemical; settings: buffer
Procathepsin L = Procathepsin L (Homo sapiens, UniProt P07711); assay: Inhibition of human cathepsin L using Z-Phe-Arg-pNA as substrate measured after 10 to 80 mins by spectrophotometric method
[13] = Trypanosoma brucei, BS449, 72 h, read-out: EC50
[14] = Trypanosoma brucei, BS449, 72 h, read-out: pEC50 (converted)

Procathepsin L, sequence (P07711 whole entry): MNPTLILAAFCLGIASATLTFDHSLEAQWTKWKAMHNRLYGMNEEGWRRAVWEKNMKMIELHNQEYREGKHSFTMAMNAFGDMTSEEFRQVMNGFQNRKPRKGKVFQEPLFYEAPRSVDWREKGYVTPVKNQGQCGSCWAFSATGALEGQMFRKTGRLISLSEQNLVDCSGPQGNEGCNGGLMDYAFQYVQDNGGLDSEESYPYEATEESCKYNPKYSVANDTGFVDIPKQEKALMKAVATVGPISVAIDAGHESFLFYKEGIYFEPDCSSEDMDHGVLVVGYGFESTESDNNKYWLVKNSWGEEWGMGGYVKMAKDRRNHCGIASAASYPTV

Row | inhibition (Trypanosoma brucei [1]) | Ki [2] | Structure (SMILES) | other results
1 | 10% |  | CC[C@H](NC(=O)OC(C)(C)C)C(=O)NCC#N | 
2 | > 50% | 52 nM | CC(C)(C)OC(=O)N[C@@H](Cc1ccc(-c2ccccc2)cc1)C(=O)NCC#N | 
3 | > 50% | 44.6 nM | N#CCNC(=O)[C@H](Cc1ccc(O)cc1)NC(=O)OCc1ccccc1 | 
4 | > 50% | 125 nM | CC(C)(C)OC(=O)N[C@@H](Cc1c[nH]c2ccccc12)C(=O)NCC#N | 
5 | > 50% | 1170 nM | CSCC[C@H](NC(=O)OC(C)(C)C)C(=O)NCC#N | 
6 | > 50% | 73.8 nM | CC(C)(C)OC(=O)N[C@@H](Cc1cccc(F)c1)C(=O)NCC#N | 
7 | 25% |  | CC(C)CS(=O)(=O)CC(NC(=O)c1ccc(-c2cccs2)cc1)C(=O)NCC#N (racemic) | 
8 | > 50% | 900 nM | CC(C)CS(=O)(=O)CC(NC(=O)c1ccc(-c2cccs2)s1)C(=O)NCC#N (racemic) | 
9 | > 50% | 42 nM | N#CCNC(=O)[C@H](Cc1ccccc1)NC(=O)OCc1ccccc1 | EC50 [3]: Nd(Unstable); Stability [4]: Unstable; EC50 ([5]; read-out: EC50): 63000 nM; EC50 ([6]; read-out: EC50): 79000 nM
10 | > 50% | 1490 nM | CC(C)[C@H](NC(=O)OC(C)(C)C)C(=O)NCC#N | 
11 |  |  | N=C(NCCCCCCNC(=N)NC(=N)Nc1ccc(Cl)cc1)NC(=N)Nc1ccc(Cl)cc1 [CHLORHEXIDINE] | EC50 [3, 13]: 349 nM; EC50 [3, 14]: 350 nM; EC50 ([5]; read-out: EC50): 440 nM; EC50 ([5]; read-out: pEC50 (converted)): 441 nM; EC50 ([6]; read-out: EC50): 321 nM; EC50 ([6]; read-out: pEC50 (converted)): 321 nM
12 | > 50% | 795 nM | CC(C)(C)OC(=O)N[C@H](C(=O)NCC#N)c1ccccc1 | 
13 | > 50% | 950 nM | CC(C)(C)OC(=O)N[C@@H](COCc1ccccc1)C(=O)NCC#N | 
14 | > 50% | 47 nM | CC(C)(C)OC(=O)N[C@@H](Cc1ccc(O)cc1)C(=O)NCC#N | 
15 | > 50% | 790 nM | CCN(CC)c1ccc2cc(C(=O)NC3(C(=O)NCC#N)CCCCC3)c(=O)oc2c1 | 
16 | > 50% |  | CC(C)C[C@H](NC(=O)c1ccc(-c2noc(-c3cccs3)n2)cc1)C(=O)NCC#N | Ratio Ki [7]: 200; inhibition (Trypanosoma brucei [8]): Tde; EC50 [3, 13]: 6000 nM; EC50 [3, 14]: 6190 nM; Ki [9]: 5.3 nM; solubility [10]: Insoluble; EC50 ([5]; read-out: EC50): 8000 nM; Ki [11]: 9.2 nM; solubility [12]: Insoluble; EC50 ([6]; read-out: EC50): 10000 nM
17 | > 50% | 26 nM | COc1ccc(C[C@H](NC(=O)OCc2ccccc2)C(=O)NCC#N)cc1 | 
18 | 37% |  | CC(C)CS(=O)(=O)CC(NC(=O)c1ccc(-c2ccccc2)s1)C(=O)NCC#N (racemic) | 
19 | 30% |  | CC(C)(C)OC(=O)N[C@@H](CC1CC1)C(=O)NCC#N | 
20 | > 50% | 820 nM | CC(C)CS(=O)(=O)CC(NC(=O)c1cc(-c2ccccc2)cs1)C(=O)NCC#N (racemic) | 
21 | > 50% | 49.2 nM | CC(C)(C)OC(=O)N[C@@H](Cc1ccccc1F)C(=O)NCC#N | EC50 [3]: Nd(Unstable); Stability [4]: Unstable; EC50 ([5]; read-out: EC50): 77000 nM; EC50 ([6]; read-out: EC50): 70000 nM
22 | > 50% | 387 nM | CC(C)(C)OC(=O)N[C@@H](Cc1ccsc1)C(=O)NCC#N | 

Row | inhibition (Trypanosoma brucei [1]) | Ki [2] | Structure (SMILES) | other results
23 | 16% |  | CC(C)CS(=O)(=O)CC(NC(=O)c1ccc(-c2nnn[nH]2)s1)C(=O)NCC#N (racemic) | 
24 | 11% |  | CN(C)c1cccc2c(S(=O)(=O)NC3(C(=O)NCC#N)CCCCC3)cccc12 | 
25 | > 50% | 90 nM | CC(C)(C)OC(=O)N[C@@H](Cc1csc2ccccc12)C(=O)NCC#N | 
26 | > 50% | 1270 nM | CC(C)(C)OC(=O)N[C@H](CC(=O)NC#N)Cc1ccccc1 | 
27 | 15% |  | CC(C)CS(=O)(=O)CC(NC(=O)c1cc2ccccc2s1)C(=O)NCC#N (racemic) | 
28 | 25% |  | CC(C)CS(=O)(=O)CC(NC(=O)c1cc2ccsc2s1)C(=O)NCC#N (racemic) | 
29 | > 50% | 55 nM | CC(C)(C)OC(=O)N[C@@H](Cc1ccccc1)C(=O)NCC#N | 
30 | > 50% | 413 nM | CN(C)c1cccc2c(S(=O)(=O)N[C@@H](Cc3ccccc3)C(=O)NCC#N)cccc12 | 
31 | > 50% | 1470 nM | CC[C@H](C)[C@H](NC(=O)OC(C)(C)C)C(=O)NCC#N | 
32 | > 50% | 68 nM | CC(C)(C)OC(=O)N[C@@H](CC1CCCCC1)C(=O)NCC#N | 
33 | > 50% | 1540 nM | N#CCNC(=O)C1(NC(=O)c2ccc(-c3noc(-c4cccs4)n3)cc2)CCCCC1 | Ki (Procathepsin L): > 5000 nM
34 | 9% |  | CC(C)CS(=O)(=O)CC(NC(=O)c1cccs1)C(=O)NCC#N (racemic) | 
35 | > 50% | 615 nM | CC(C)(C)OC(=O)N[C@@H](Cc1ccco1)C(=O)NCC#N | 
36 | > 50% | 12.3 nM | CC(C)(C)OC(=O)N[C@@H](Cc1ccc(Br)cc1)C(=O)NCC#N | inhibition (Trypanosoma brucei [8]): Tde; EC50 [3, 13]: 129000 nM; EC50 [3, 14]: 130000 nM; EC50 ([5]; read-out: EC50): 43000 nM; EC50 ([6]; read-out: EC50): 104000 nM
37 | > 50% | 27.6 nM | CC(C)(C)OC(=O)N[C@@H](Cc1cccc(Br)c1)C(=O)NCC#N | 
38 | > 50% | 750 nM | CCCC[C@H](NC(=O)OC(C)(C)C)C(=O)NCC#N | 
39 | > 50% | 172 nM | CC(C)C[C@H](NC(=O)Nc1ccc(-c2noc(-c3cccs3)n2)cc1)C(=O)NCC#N | 
40 | 22% |  | N#CCNC(=O)C1(NC(=O)OCc2ccccc2)CCCCC1 | Ki (Procathepsin L): > 5000 nM
41 | > 50% | 43.8 nM | CC(C)(C)OC(=O)N[C@@H](Cc1ccc(F)cc1)C(=O)NCC#N | EC50 [3, 13]: 217000 nM; EC50 [3, 14]: 217000 nM; EC50 ([5]; read-out: EC50): 169000 nM; EC50 ([6]; read-out: EC50): 105000 nM
42 | > 50% |  | N#CCNC(=O)[C@H](Cc1cccc(Br)c1)NC(=O)c1ccc(-c2ccccc2)cc1 | Ratio Ki [7]: 200; inhibition (Trypanosoma brucei [8]): Tde; Ki [9]: 2.6 nM; Ki [11]: 9.2 nM
43 | 29% |  | CC(C)CS(=O)(=O)CC(NC(=O)c1ccc(-c2ccsc2)s1)C(=O)NCC#N (racemic) | 
